# How the values were obtained:
# [1] = test system: eIF4A-dependent translation; assay: in vitro translation assay, bicistronic FF/HCV/Ren reporter mRNA in Krebs-2 extracts; format: biochemical; settings: for IC50 / translation inhibition (in words): bicistronic FF/HCV/Ren mRNA; for IC50: FIG. 14/15, read-out: IC50, inhibition of cap-dependent translation (FF relative to REN)
# Protocol: Structure-Activity Relationships. With a number of amidino-rocaglates and amino-rocaglates in hand, we evaluated their inhibition of eIF4A-dependent translation using an in vitro assay as depicted in FIG. 14, where a bicistronic reporter mRNA was designed for translation in Krebs-2 extracts. In FIG. 14 the following description applies (a) IC50 was determined from fitted sigmoid curves; […] indicates the concentration of compound that inhibits cap-dependent translation by 50%, which was normalized by cap-independent translation. For its determination, the bicistronic reporter FF/HCV/Ren mRNA was used to produce Firefly luciferase (cap-dependent) and Renilla luciferase (cap-independent) in Krebs-2 extracts in the presence of indicated compounds at various concentrations. In particular, translation of Firefly luciferase (FF) is cap-dependent and depends on eIF4A activity; in contrast, translation of Renilla luciferase (REN) utilizes the HCV internal ribosome entry site (IRES) which functions independently of eIF4A. IC50's were determined by the inhibition of FF relative to REN obtained in the presence of compound relative to vehicle controls and normalized to REN as an internal control. […] In accordance with the eIF4A-RNA-rocaglamide (2) co-crystallographic analysis (FIG. 4), the amide carbonyl of 2 interacts with Gln195 of eIF4A as a H-bond acceptor, while the tertiary hydroxyl of 2 serves as a H-bond donor to an RNA base. […] To further verify the hypothesis, amidino-rocaglates (pKa of N—H˜26.7-30.7 in DMSO, strong H-bond donors) and amino-rocaglates (pKa of N—H˜36 to 44 in DMSO, weak H-bond donors) were next evaluated. […] Conversely, benzyl amidine 9e had IC50=60 nM, whereas the methylene tether may allow conformational adjustment to avoid rigid repulsion in the binding pocket.
# The rocaglate collection was also tested in in vitro translation assays using cell-free extracts with a previously described bicistronic mRNA containing the HCV IRES, which is not dependent on eIF4A activity and served as an internal control (FIG. 19C).
# (§1) In Vitro Translation Assays. In vitro translation assays performed in Krebs-2 cell extracts were supplemented with 5 mM MgCl2, 30 mM Tris-HCl (pH 7.5), 1.5 mM ATP, 0.1 mM GTP, 0.6 mM CTP, 10 mM dipotassium creatine phosphate, 80 μg/mL creatine kinase, and 0.04 mM amino acids. The specified mRNA reporters were added to each reaction at a final concentration of 10 ng/μL. The translation reactions were incubated with or without compound for 60 minutes at 30° C. prior to the measurement of luciferase activities.
# (§2) FIGS. 19A-19C. Rocaglate activity profiling. 19A. Assessing eIF4A1:poly r(AG)8 (SEQ ID NO: 2) RNA binding by FP in the presence of 10 μM rocaglate. Values are expressed relative to vehicle controls and data is rank ordered. n=3±SD. 19B. The change in polarization obtained with eIF4A1:poly r(AG)8 (SEQ ID NO: 2) and eIF4A2:poly r(AG)8 (SEQ ID NO: 2) RNA. Pearson r=0.814; p<0.0001. 19C. Inhibition of cap-dependent translation by rocaglates was measured using the indicated mRNA bicistronic reporter (4 ng/ul) in Krebs-2 extracts at a final compound concentration of 2 μM. n=3±SD.
# FIG. 35A-35E are plots showing dose-response curve of FF-HCV-Ren mRNA translation in Krebs extracts with IC50s shown for inhibition of cap-dependent protein synthesis. Values are plotted relative to DMSO controls. n=2 technical replicates performed in duplicate.
# [2] = test system: cap-dependent translation; assay: in vitro translation of (AG)10- and (UC)10-FF/HCV/Ren mRNA reporters in Krebs-2 extracts; format: biochemical; settings: cap-proximal (AG)10 or (UC)10
# Protocol: Rocaglates show differing mRNA targeting spectra in translation assays. The in vitro experiments described above investigating the rocaglate-mediated inhibition of cap-dependent translation were performed at a fixed rocaglate concentration (2 μM) using a generic bicistronic mRNA reporter in Krebs-2 cell-free translation extracts (FIG. 19C). To better assess the consequences of eIF4A:polypurine clamping on the initiation process, we designed a series of bicistronic reporters harboring cap-proximal polypurine tracks of varying lengths in their 5′ leader region (FIG. 22A). […] We reasoned that these reporters would provide a sensitized readout for rocaglate-induce clamping of eIF4A at this location.
# We next tested the response of mRNA reporters containing cap-proximal (AG)10 or (UC)10 sequences (FIG. 22A). […] The difference in activity observed between CR-1-31-B (23) and silvestrol 1 was not restricted to cap-proximal polypurine tracks, but also observed with reporters where the polypurine/polypyrimidine tracks were situated 15 nt downstream from the cap (FIGS. 24A and 24B).
# as §1
# FIGS. 23A-23C. The presence of polypurines bases in mRNA 5′ leader regions are not universal predictors of rocaglate-responsiveness. FIG. 23A. Schematic diagram of FF/HCV/Ren mRNA reporters containing cap-proximal (AG) or (UC) dinucleotide repeats. 23B. Firefly and renilla luciferase activity in response to the indicated CR-1-31-B (23) concentrations (relative to DMSO controls) in Krebs-2 extracts programmed with 4 ng/uL of the indicated mRNAs. n=3±SD. 23C. Dose response of the indicated compounds in Krebs-2 extracts programmed with 4 ng/μL of the indicated mRNAs. n=3± SD.
# FIG. 23. Dose-response of (AG)10- and (UC)10-FF/HCV/Ren mRNAs to CMLD011167, hippuristanol and pateamine A in vitro. Firefly and renilla luciferase activity in response to the indicated compound concentrations (relative to DMSO controls) in Krebs-2 extracts programmed with 4 ng/μL of the indicated mRNAs. n=3± SD.
# [3] = test system: HEK 293 cells; assay: in cellula translation of transfected (AG)10- and (UC)10-FF/HCV/Ren mRNA; format: cell-based; settings: compound added 1 h after mRNA transfection, 6 h exposure
# Excerpt: We next asked if differences in behavior among rocaglates towards the (AG)10- and (UC)10-reporters observed in vitro also extended in cellula (FIG. 26B). This was important since in cells, mRNA transcripts need to compete for components of the translation initiation machinery from a complex cellular mRNA pool and this scenario is difficult to recapitulate in experiments using cell-free extracts. Following mRNA transfections, cells were exposed to compound and luciferase activity determined.
# RNA Transfections. HEK 293 cells were transfected in a 24 well plate with 0.25 μg/well of in vitro synthesized capped m^7GpppG(AG)10-FF/HCV/Ren or m^7GpppG(UC)10FF/HCV/Ren mRNA and 1 h later were exposed to the indicated concentrations of compounds for an additional 6 h. Following this, extracts were prepared using passive lysis buffer (PLB, Promega) and luciferase activity measured on a Berthold Lumt LB 9507 luminometer.
# FIGS. 26A-26B. In cellula activity of rocaglates. 26A. Cytotoxicity of rocaglates towards NIH/3T3 (grey circle) and the NIH/3T3 rocaglate-resistant line, eIF4A^em1JP(redtriangle). Cells were exposed to 40 nM compound for 4 days and viability was measured using the SRB assay. n=3±SD. 26B. Rocaglates show different sequence preferences for inhibiting cap-dependent translation in cellula. HEK 293 cells were transfected with 0.5 μg of in vitro synthesized capped (AG)10-FF/HCV/Ren or (UC)10-FF/HCV/Ren mRNA and 1h later exposed to the indicated concentrations of compounds for an additional 6 h, at which time extracts were prepared and luciferase activity measured. n=3 SD.
# FIG. 28. In cellula dose-response of (AG)10- and (UC)10-FF/HCV/Ren mRNAs to hippuristanol and pateamine. Firefly and renilla luciferase activity in response to the indicated compound concentrations (relative to DMSO controls) following mRNA transfections in 293 cells. n=3±SD.
# [4] = molecular target: T1, eIF4A1:poly r(AG)8 RNA (Homo sapiens, UniProt P60842); assay: fluorescence polarization (FP) assay, eIF4A1 binding to FAM-labelled RNA; settings: 500 nM eIF4A1, 10 nM FAM-labelled RNA, screen at 10 μM compound
# T1 construct: His6 (N); made in house; host or cells: E. coli BL21 (DE3)
# Excerpt: Rocaglates similarly enhance RNA binding of eIF4A1 and eIF4A2. In order to rapidly evaluate the ability of rocaglates to stimulate binding of eIF4A to RNA, a fluorescence polarization (FP) assay using a FAM (fluorescein amidite)-labelled RNA probe (FIG. 18A) was used. […] Due to the high degree of shared amino acid identity between the two paralogs, their apparent similarity with respect to RNA binding activity and response to CR-1-31-B (23), and the fact that eIF4A1 is essential but eIF4A2 is not, eIF4A1 was used in the majority of our subsequent experiments.
# Fluorescence Polarization (FP) Assays. Unless otherwise specified, eIF4A (500 nM) was incubated with 10 nM FAM-labelled RNA for 30 min in FP buffer (14.4 mM HEPES-NaOH (pH 8), 108 mM NaCl, 1 mM MgCl2, 14.4% glycerol, 0.1% DMSO, 2 mM DTT, 1 mM AMPPNP) at room temperature in black low volume 384 well plates (Corning 3820). FP readings were performed on a Pherastar FS microplate reader (BMG Labtech).
# as §2
# FIG. 21. Assessing stimulation of eIF4A1:RNA binding by rocaglates and pateamine. FAM-labelled RNA was incubated in the presence of 500 nM eIF4A1 and the indicated concentrations of compound for 30 min, after which time FP measurements were taken. Limitations in WGD-57-591 availability prevented us from extending the titrations to 100 μM. The change in FP obtained relative to vehicle controls is presented. n=3±SD. FP results of competition assays in which preformed eIF4A1:rocaglate:FAM-poly r(AG)10 complexes were incubated in the presence of poly r(AG)10 (SEQ ID NO: 39) and dissociation measured as a function of time. n=3±SD.
# T1 sequence (P60842 whole entry, species assumed): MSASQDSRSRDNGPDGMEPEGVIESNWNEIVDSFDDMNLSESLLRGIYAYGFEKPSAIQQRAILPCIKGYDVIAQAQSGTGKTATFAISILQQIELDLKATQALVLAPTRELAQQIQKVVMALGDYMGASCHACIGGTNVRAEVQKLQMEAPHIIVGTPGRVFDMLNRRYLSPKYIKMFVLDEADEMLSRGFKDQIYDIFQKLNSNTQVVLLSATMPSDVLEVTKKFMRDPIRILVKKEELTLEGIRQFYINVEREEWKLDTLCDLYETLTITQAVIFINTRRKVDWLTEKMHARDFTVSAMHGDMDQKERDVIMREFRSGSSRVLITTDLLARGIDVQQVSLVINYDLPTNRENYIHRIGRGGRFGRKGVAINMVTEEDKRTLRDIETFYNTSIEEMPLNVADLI
smiles,measurement,setting,value
COc1ccc([C@@]23Oc4cc(OC)cc(OC)c4[C@@]24NC(C)=N[C@@]4(O)[C@H](C(=O)N(C)OC)[C@H]3c2ccccc2)cc1 [9aa],IC50,[1],0.059 µM
CCCCC1=N[C@@]2(O)[C@H](C(=O)OC)[C@@H](c3ccccc3)[C@]3(c4ccc(OC)cc4)Oc4cc(OC)cc(OC)c4[C@]23N1 [9d],IC50,[1],0.187 µM
COC(=O)[C@@H]1[C@@H](c2ccccc2)[C@]2(c3ccc(OC)cc3)Oc3cc(OC)cc(OC)c3[C@@]23NC(Cc2ccccc2)=N[C@@]13O [9e],IC50,[1],0.06 µM
COC(=O)[C@@H]1[C@@H](c2ccccc2)[C@]2(c3ccc(OC)cc3)Oc3cc(OC)cc(OC)c3[C@@]23NC(C(C)(C)C)=N[C@@]13O [9f],IC50,[1],0.267 µM
COC(=O)[C@@H]1[C@@H](c2ccccc2)[C@]2(c3ccc(OC)cc3)Oc3cc(OC)cc(OC)c3[C@@]23NC(N)=N[C@@]13O [9j],IC50,[1],0.125 µM
COCC1=N[C@@]2(O)[C@H](C(=O)OC)[C@@H](c3ccccc3)[C@]3(c4ccc(OC)cc4)Oc4cc(OC)cc(OC)c4[C@]23N1 [9k],IC50,[1],0.064 µM
COc1ccc([C@@]23Oc4cc(OC)cc(OC)c4[C@@]24NC(C)=N[C@@]4(O)[C@H](C(=O)N(C)C)[C@H]3c2ccccc2)cc1 [9z],IC50,[1],0.063 µM
CONC(=O)[C@H]1[C@@H](O)[C@@]2(O)c3c(OC)cc(OC)cc3O[C@@]2(c2ccc(Br)cc2)[C@@H]1c1ccccc1 [SDS-1-021],inhibition of cap-dependent translation in vitro (in words),[1]; screen at 2 μM compound,the most potent compound
COCCN[C@]12c3c(OC)cc(OC)cc3O[C@@]1(c1ccc(OC)cc1)[C@H](c1ccccc1)[C@@H](C(=O)N(C)C)[C@H]2O [compound 18],translation inhibition (in words),[1],no translation inhibition
COCCN[C@]12c3c(OC)cc(OC)cc3O[C@@]1(c1ccc(OC)cc1)[C@H](c1ccccc1)C[C@@H]2O [compound 20],translation inhibition (in words),[1],no translation inhibition
COCCN[C@]12c3c(OC)cc(OC)cc3O[C@@]1(c1ccc(OC)cc1)[C@H](c1ccccc1)C[C@@H]2N [compound 22],translation inhibition (in words),[1],no translation inhibition
C[C@H]1C[C@@]2(O[C@H]3C[C@H]4[C@@H]5CC[C@H]6C[C@H](O)CC[C@]6(C)[C@H]5[C@@H](O)C[C@]4(C)[C@H]3[C@@]2(C)O)OC1(C)C [hippuristanol],inhibition of (AG)10 versus (UC)10 reporter in vitro (in words),[2],equally repressed cap-dependent translation from both
same,inhibition of (AG)10 versus (UC)10 reporter in cellula (in words),[3],inhibited both reporters equally
CC(/C=C/C(C)=C/[C@@H]1Cc2nc(cs2)[C@@H](C)C[C@@H](N)CC(=O)O[C@@H](C)C/C(C)=C/C=C\C(=O)O1)=C\CN(C)C [pateamine A],inhibition of (AG)10 versus (UC)10 reporter in vitro (in words),[2],equally repressed cap-dependent translation from both
same,inhibition of (AG)10 versus (UC)10 reporter in cellula (in words),[3],inhibited both reporters equally
same,stimulation of eIF4A1:RNA binding (in words),[4],potently induced binding to all RNA substrates tested
